Laboratory results from patent publication US11478451B1, “Macrocyclic chlorine substituted indole derivatives” (Bayer Aktiengesellschaft, priority 2017, dated 2022).
Structures can show the parent of a compound that is named as a salt. Where two headings read alike, the source gives them in different places. Each block holds one compound with its values, some of them ahead of it.

How the values were obtained:
[1] = the molecule shown is the open-chain precursor, crosslinker bond, 11-membered ring, MeCN
SUDHL5 cells [2] = experiment: Induction of caspase-3/7 activity (Caspase-Glo 3/7), SUDHL5; format: cell-based; settings: EC50, median, SUDHL5, 3 h treatment
Method in brief: (§1)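 DLBCL lines treated with compounds for 3 h at 37 °C in a humidified incubator; caspase-3/7 activity read with Caspase-Glo 3/7 luminescent reagent. Medium-only background subtracted from all values.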

SUDHL10 cells [3] = experiment: Induction of caspase-3/7 activity (Caspase-Glo 3/7), SUDHL10; format: cell-based; settings: EC50, median, SUDHL10, 3 h treatment
Method in brief: as §1

SUDHL5 cells [4] = experiment: Antiproliferation assay (CellTiter-Glo, 72 h), SUDHL5; format: cell-based; settings: IC50, median, SUDHL5, 72 h, read-out: Antiproli SUDHL5 [M] (median)
Method in brief: (§2)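 Cells were incubated with compounds for 72 h at 37°C. Viability was then read by CellTiter-Glo luminescence, and a parallel day 0 plate read the same way gave the time-zero signal.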

MV-4-11 cells = experiment: Antiproliferation assay (CellTiter-Glo, 72 h), MV-4-11; format: cell-based; settings: IC50, median; MV-4-11, 72 h; read-out: Antiproli MV-4-11 [M] median
Procedure: (§3) Assessment of the Anti-Proliferative Effect of Compounds in Different Cell Lines
(§4) The impact of compounds on the proliferation of different cell lines was assessed using the CellTiter-Glo® Luminescent Cell Viability reagent from Promega (G7573).
(§5) In parallel, cells were plated in a reference (day 0) plate for time zero determination.
(§6) Rim wells were excluded. The cells were incubated for 72 h hours in a humidified incubator at 37° C. The day 0 plate was measured by adding 30 μL/well of CTG solution (CellTiter-Glo® Luminescent Cell Viability reagent, Promega G7573) to time zero wells in the reference plate followed by a 10 minutes incubation and luminescence reading at 0.1 ms. using the PHERAstar FS microplate reader (BMG Labtech).
(§7) After 72 h incubation, the treated plates were measured in the same way as the day 0 plate mentioned above.

SK-BR-3 cells = experiment: Antiproliferation assay (CellTiter-Glo, 72 h), SK-BR-3; format: cell-based; settings: IC50, median; SK-BR-3, 72 h; read-out: Antiproli SK-BR-3 [M] median
Procedure: as §3, §4, §5, §6, §7

SUDHL5 cells [5] = experiment: Induction of cytotoxicity (CellTiter-Glo, 5 h), SUDHL5; settings: SUDHL5, 5 h
SUDHL10 cells [6] = experiment: Induction of cytotoxicity (CellTiter-Glo, 5 h), SUDHL10; settings: Homo sapiens, SU-DHL10, 5 h, read-out: Cytotox SUDHL10 [M] (median), IC50, median; SUDHL10, 5 h
MCL-1 = MCL-1 (Homo sapiens (Human), UniProt Q07820, K194A/K197A/R201A); experiment: Protein-protein interaction assay MCL-1/Noxa BH3 peptide (MCL-1 assay), TR-FRET; format: binding; settings: IC50, median; MCL-1/Noxa BH3 TR-FRET
MCL-1, sequence (Q07820 whole entry K194A/K197A/R201A, looked up, the tested form may be a part): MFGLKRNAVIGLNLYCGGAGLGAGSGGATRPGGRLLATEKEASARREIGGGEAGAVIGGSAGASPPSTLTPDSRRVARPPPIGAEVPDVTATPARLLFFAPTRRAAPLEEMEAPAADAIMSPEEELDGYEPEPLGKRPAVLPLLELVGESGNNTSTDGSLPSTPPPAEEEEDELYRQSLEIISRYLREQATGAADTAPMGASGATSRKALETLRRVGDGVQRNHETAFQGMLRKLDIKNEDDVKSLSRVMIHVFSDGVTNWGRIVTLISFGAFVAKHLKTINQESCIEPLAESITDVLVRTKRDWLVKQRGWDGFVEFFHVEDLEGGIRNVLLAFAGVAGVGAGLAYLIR
Procedure: The dose-dependent inhibition by the compounds described in this invention of the interaction between MCL-1 and the BH3 domain of Noxa (both human) was determined using a steady state binding competition assay with time-resolved fluorescence energy transfer (TR-FRET) readout. […] The MBP-MCL-1 was purchased from Beryllium (Bedford, Mass., USA). The expression and purification of this protein construct has been described elsewhere (DOI:10.1371/journal.pone.0125010). The Noxa BH3-derived peptide can be obtained from e.g. Biosyntan (Berlin, Germany), 50812.1.
For that, 100-fold concentrated DMSO solutions were prepared by serial dilutions (1:3.4) of a 2 mM stock solution in a clear, 384-well microtiter plate (Greiner Bio-One, Frickenhausen, Germany). From there, 50 nl were transferred in a dark test plate (Greiner Bio-One, Frickenhausen, Germany). […] This was followed by a 10-minute incubation step at 22° C. for pre-equilibration of the putative complex between MBP-MCL-1 and the compounds.
The mixture was incubated in the dark for one hour at 22° C. and then overnight at 4° C.
The resulting data (ratio) were normalized, taking 0% inhibition as the mean value of control measurements (usually 32 data points) where all reagents were included. In this case 50 nl DMSO were used instead of compounds. […] IC50 values were determined by regression analysis based on a 4 parameter equation (minimum, maximum, IC50, Hill; Y=Max+(Min−Max)/(1+(X/IC50)^Hill) using the Screener Software (Genedata).

MCL1 protein = MCL1 protein (Homo sapiens (Human), UniProt Q07820); experiment: PIxEL: protein-protein interaction in permeabilized cells by ELISA (MCL1/biotin-BIM BH3 peptide, RKO cells); format: cell-based; settings: IC50, median, serum free
MCL1 protein, sequence (Q07820 whole entry): as the sequence (Q07820 whole entry K194A/K197A/R201A, looked up, the tested form may be a part) above, with A194K, A197K, A201R counted along it
Procedure: PIxEL: Protein-Protein Interaction in Permeabilized Cells by ELISA
Most MCL1 protein molecules are localized at the mitochondria outer membrane and sequester pro-apoptotic proteins through binding of their BCL2 homology domain 3 (BH3 domain). MEB buffer (150 mM mannitol, 10 mM HEPES pH 7.5, 50 mM KCl, 20 μM EDTA, 20 μM EGTA, 5 mM potassium succinate, 0.1% protease-free BSA (SIGMA) with low dose digitonin (0.002%) permeabilizes plasma membrane while leaves live mitochondria, where MCL1 maintains its native localization and conformation. Unlike biophysical assays (e.g. TR-FRET) that use truncated recombinant MCL1 protein, this assay uses full length endogenous MCL1 protein at mitochondria outer membrane. It measures the interaction between MCL1 protein and biotinylated BIM BH3 peptide. Compounds can compete with BIM BH3 peptide to bind to MCL1 protein.
On day 1, RKO colon cancer cell line cells were plated at 0.8 million cells/ml, 100 μl/well in 96-well flat bottom TC plates (Corning). MCL1 antibody (Santa Cruz sc-12756) were diluted at 200 fold (final concentration 1 μg/ml) in carbonate buffer (Thermo Fisher Scientific, pH 9.6), and 50 μl of diluted antibody was added to each well of high bind ELISA plates ([…]). Each plate was tapped to make sure liquid covering entire bottom of wells and incubate at 37° C. overnight.
On the second day, MCL1 antibody was washed from ELISA plate. 250 μl Odyssey® Blocking Buffer (PBS) (Li-Cor) was added to each well, incubated at room temperature for at least 1 hour, then washed once with 250 μl 1×PBST. Plates with RKO cells were gently washed once with 100 μl/well PBS, once with 100 μl/well MEB buffer without digitonin, then 100 μl of MEB buffer with 0.002% digitonin was gently added to each well. Compounds were added with HP Tecan compound dispenser in 3-fold dilution series, highest dose 30 μM, 10-dose per compound in quadruplicates. Biotin-BIM peptide (synthesized by 21st Century) was added with HP Tecan compound dispenser at 0.2 μM immediately after the addition of compounds. Plates were rocked for 1 hour at room temperature. Then MEB buffer was aspirated and 50 μl of CHAPS buffer (50 mM Tris-Cl, pH 7.4, 150 mM NaCl, 1% CHAPS, 1 mM EDTA, 1 mM EGTA, cOmplete protease inhibitors (Roche), PhosSTOP (Roche)) was added to each well. Plates were rocked for 1 hour at 4° C., then 45 μl cell lysate from each well were transferred to ELISA plates coated with MCL1 antibody. Plates were incubated overnight in the cold room with rocking.
On the third day, ELISA plates were washed once with 250 μl 1×PBST. Streptavidin-poly-HRP (Thermo Fisher Scientific) was diluted to 20 ng/ml in Odyssey blocking buffer plus 0.05% Triton-100, and 100 μl was added to each well of the ELISA plate. Plates were incubated at RT from 1 hour with rocking, then washed with 100 μL 1×PBST for 3 times. Each SuperSignal ELISA Femto Maximum Sensitivity substrate was added to a 50-ml tube and mixed, then 100 μl of mixed substrate was added to each well. Plates were shaken for 1 minute then luminescence was measured by Envision plate reader […]. Signal of each well were normalized by no-compound control and no-cell control. IC50 was calculated using Graphic Pad PRISM software.

AMO-1 cells = experiment: Antiproliferation assay (CellTiter-Glo, 72 h), AMO-1; format: cell-based; settings: IC50, median, AMO-1, 72 h, read-out: Antiproli AMO-1 [M] median
Method in brief: as §2

HMC-1-8 cells = experiment: Antiproliferation assay (CellTiter-Glo, 72 h), HMC-1-8; format: cell-based; settings: IC50, median; HMC-1-8, 72 h; read-out: Antiproli HMC-1-8 [M] median
Method in brief: as §2

[7] = read-out: Cytotox SUDHL5 [M] (median), IC50, median
[8] = Homo sapiens, SU-DHL-5, 5 h, read-out: Cytotox SUDHL5 [M] (median), IC50, median

SMILES: CCOC(=O)c1[nH]c2c(-c3c(CC)nn(C)c3CO)c(Cl)ccc2c1CCCOc1cccc2cc(F)ccc12
- ring closure, isolated yield ([1]; (Z)-1,4-dichlorobut-2-ene/Cs2CO3/NaI, […]): 84%

SMILES: CCOC(=O)c1[nH]c2c(-c3c(CC)nn(CCN4CCOCC4)c3CNC)c(Cl)ccc2c1CCCOc1cccc2ccccc12
- ring closure, isolated yield ([1]; (Z)-1,4-dichlorobut-2-ene/Cs2CO3, […]): 45%

SMILES: CCOC(=O)c1[nH]c2c(-c3c(CO)nn(C)c3C)c(Cl)ccc2c1CCCOc1cccc2ccccc12
- ring closure, isolated yield ([1]; (Z)-1,4-dichlorobut-2-ene/Cs2CO3/NaI, […], 70.0 °C): 71%

SMILES: CCOC(=O)c1[nH]c2c(-c3c(CO)nn(C)c3CC)c(Cl)ccc2c1CCCOc1cccc2cc(F)ccc12
- ring closure, isolated yield ([1]; (Z)-1,4-dichlorobut-2-ene/Cs2CO3/NaI, 77.0 mM, […]): 82%

SMILES: CCOC(=O)c1[nH]c2c(-c3c(CO)nn(CCCO[Si](C)(C)C(C)(C)C)c3C)c(Cl)ccc2c1CCCOc1cccc2ccccc12
- ring closure, isolated yield ([1]; (Z)-1,4-dichlorobut-2-ene/Cs2CO3/NaI, 31.9 mM, 70.0 °C): 68%

- EC50 (SUDHL5 cells [2]): 290 nM
- EC50 (SUDHL10 cells [3]; Homo sapiens, SU-DHL10, 3 h): 360 nM
- IC50 (SUDHL5 cells [4]): 4.7e-07 M
- IC50 (MV-4-11 cells): 1.1e-06 M
- IC50 (SK-BR-3 cells): 3e-06 M
SMILES: CCc1nn(CCN2CCOCC2)c2c1-c1c(Cl)ccc3c(CCCOc4cccc5ccccc45)c(C(=O)O)n(c13)CCCCOC2 (racemic) [Example 8, (rac)-4-chloro-3-ethyl-1-[2-(morpholin-4-yl)ethyl]-7-[3-(naphthalen-1-yloxy)propyl]-1,10,11,12,13,15-hexahydropyrazolo[4′,3′:9,10][1,6]oxazacycloundecino[8,7,6-hi]indole-8-carboxylic acid]
- IC50 (SUDHL5 cells [5]; [7]): 3.5e-07 M
- IC50 (SUDHL10 cells [6]): 4.5e-07 M

- IC50 (MCL-1): 1.6 nM
- EC50 (SUDHL5 cells [2]; listed as 082): 490 nM
- EC50 (SUDHL10 cells [3]; listed as 082): 1100 nM
- IC50 (MCL1 protein): 225 nM
- IC50 (SUDHL5 cells [4]; Homo sapiens, SU-DHL-5, 72 h): 8.1e-07 M
SMILES: Cc1c2c(nn1C)COCC1CC1Cn1c(C(=O)O)c(CCCOc3cccc4ccccc34)c3ccc(Cl)c-2c31 (single isomer, unassigned) [Example 82, 3-chloro-4,5-dimethyl-14-{3-[(naphthalen-1-yl)oxy]propyl}-5,7,9a,10,10a,11-hexahydro-9H-cyclopropa[3,4]pyrazolo[4′,3′:9,10][1,6]oxazacycloundecino[8,7,6-hi]indole-13-carboxylic acid]
- IC50 (AMO-1 cells; listed as 082): 2.9e-06 M
- IC50 (SUDHL5 cells [5]; [8]): 4.9e-07 M

SMILES: Cc1c2c(nn1C)CN(C)CCCCn1c(C(=O)O)c(CCCOc3cccc4cc(F)ccc34)c3ccc(Cl)c-2c31 (single isomer, unassigned; enantiomer 2) [Example 32, (−)-4-chloro-7-{3-[(6-fluoronaphthalen-1-yl)oxy]propyl}-2,3,14-trimethyl-10,11,12,13,14,15-hexahydro-2H-pyrazolo[3′,4′:8,9][1,6]diazacycloundecino[10,11,1-hi]indole-8-carboxylic acid-N-ethylethanamine salt (Enantiomer 2)]
- IC50 (MCL-1): 26 nM
- IC50 (MCL1 protein): 19100 nM
- IC50 (SUDHL5 cells [4]): 6e-06 M
- IC50 (MV-4-11 cells): 1.4e-05 M
- IC50 (SUDHL5 cells [5]; [7]): 9.3e-06 M

- IC50 (MCL-1): 2.7 nM
- EC50 (SUDHL5 cells [2]; Homo sapiens, SU-DHL-5, 3 h): 270 nM
- IC50 (MCL1 protein): 752 nM
- IC50 (SUDHL5 cells [4]; Homo sapiens, SU-DHL-5, 72 h): 2.7e-07 M
SMILES: Cc1c2c(nn1C)COCC1CC1Cn1c(C(=O)O)c(CCCOc3cccc4ccccc34)c3ccc(Cl)c-2c31 (single isomer, unassigned; stereoisomer 1) [Example 65, (9aS,10aR or 9aR,10aS)-3-chloro-4,5-dimethyl-14-{3-[(naphthalen-1-yl)oxy]propyl}-5,7,9a,10,10a,11-hexahydro-9H-cyclopropa[3,4]pyrazolo[4′,3′:9,10][1,6]oxazacycloundecino-[8,7,6-hi]indole-13-carboxylic acid—Stereoisomer 1]
- IC50 (AMO-1 cells; Homo sapiens, AMO1, 72 h): 6e-07 M
- IC50 (HMC-1-8 cells): 2.5e-06 M
- IC50 (SUDHL5 cells [5]; [8]): 3.3e-07 M
